# Assay results taken from patent US8535740B2, “Compositions from Nigella sativa” (priority 2002, dated 2013).
# Marks after values point to notes of the source that are not given here.
# Legend:
# [1] = DPPH free radical scavenging (antioxidant) activity; type: biochemical; settings: computed on basis of TQ content
# Method: Methodology—Antioxidant activity was determined utilizing 2,2-diphenyl-1-picrylhydrazyl (DPPH), which is a stable radical. […] The color turns from purple to yellow as the molar absorption of the DPPH radical at 550 nm is reduced when the odd electron of DPPH radical becomes paired with hydrogen from a free radical scavenging antioxidant to form the reduced DPPH-H. The test samples were dissolved in methanol containing 1% dimethyl sulfoxide and added to microtiter wells in 100 μL aliquots to 100 μL of a 100 μM DPPH solution in methanol. Readings were taken at 10, 30 and 60 minutes following the addition of the test material. Percent inhibition of the DPPH radical by the test material was computed relative to the inhibition of the DPPH radical by the vitamin E analog trolox and tabulated as μmol trolox/g test material.
# [2] = test system: prostate specific antigen (PSA) secretion from LNCaP prostate cells; assay: Prostate specific antigen secretion from LNCaP prostate cells; type: cell-based, human; settings: for Effect on PSA Secretion over 24 Hours: LNCaP cells; for PSA secretion: 24 hours
# Description: Chemicals—PSA was quantified from the cell culture supernatant fluid using the Quantikine Human KLK3/PSA Immunoassay kit (R&D Systems, Inc., Minnaepolis, Minn.). All other materials used in this example were purchased from Sigma (St. Louis, Mo.) or otherwise noted and were of the highest purity commercially available. The N. sativa samples used in this study were those commercial-scale extracts described in Example 1. Cell culture and treatment—The LNCaP prostate cell line, which produces PSA, was used to study the effects of commercial-scale N. sativa scale extracts of Example 1 and pure TQ on the secretion of PSA. LNCaP cells were purchased from the American Type Culture Collection (ATCC, Manassas, Va.) and sub-cultured according to instructions supplied by ATCC. Prior to experiments, cells were cultured in DMEM containing 10% FBS-HI added 50 units penicillin/ml and 50 μg streptomycin/ml, and maintained in log phase prior to experimental setup. Cells were grown in a 5% CO2 humidified incubator at 37° C. Components of medium included: (1) 10% FBS/DMEM (Fetal Bovine Serum/Dulbecco's Modified Eagle's Medium) containing 4.5 g glucose/L; (2) 50 U/ml penicillin; and (3) 50 μg/ml streptomycin. Growth medium was made by adding 50 ml of heat inactivated FBS and 5 ml of penicillin/streptomycin to 500 ml DMEM. This medium was stored at 4° C. Before use, the medium was warmed to 37° C. in a water bath. LNCaP cells were seeded at an initial density of 6×10^4 cells/cm^2 in 96-well plates. For two days, the cells were allowed grow to reach confluence. On day three post seeding, cells were treated with TQ, NS8, NS9, NS10, Spent#1, and NSSpent#2 at the concentrations listed in FIGS. 5, 6 and 7. Twenty-four hours later, the supernatant media were sampled and assayed for PSA.
# [3] = test system: IL-6 secretion in 3T3-L1 adipocytes; assay: IL-6 secretion in t10-CLA-stimulated 3T3-L1 adipocytes; type: cell-based, murine
# Method: Treatment—Test materials were added four hours prior to the addition of t10-CLA at a concentration of 50 μM. Following overnight incubation, the supernatant media were sampled for determination of IL-6 and adiponectin. Interleukin-6 assay—The IL-6 secreted into the medium in response to […] stimulation was quantified using the Quantikine® Mouse IL-6 Immunoassay kit with no modifications (R&D Systems, Minneapolis, Minn.). […] All supernatant media samples were diluted 1:30 for quantification. Statistical Calculations and Interpretation—Test materials and were assayed in duplicate, while solvent controls were replicated eight times. IL-6 and adiponectin secretion were represented relative to the IL-6 and adiponectin secretion of the t10-CLA only controls as the IL-6 and adiponectin index and differences among the means were analyzed by the student's t-test assuming a five percent probability of a type I error (Excel; Microsoft, Redmond, Wash.).
# [4] = test system: 3T3-L1 adipocytes; assay: Lipolysis (glycerol / free fatty acid release) in 3T3-L1 adipocytes; type: cell-based, murine; settings: forskolin 82 μg/mL, test materials 5 μg/mL (FIG. 9)
# Method: Cell culture and treatment-Culture and treatment of 3T3-L1 adipocytes and C2C12 myocytes was as described in Example 5. Concentrations of the forskolin positive control and test materials are listed in FIG. 9 for adipocytes and FIG. 10 for myocytes. Glycerol assay-Free fatty acid release from 3T3-L1 adipocytes or C2C12 myocytes was quantified by measuring glycerol secretion into the medium. Glycerol was measured spectrophotometrically using the Free Glycerol Determination Kit ([…], Sigma) and an EL 312e Microplate BIO-KINETICS spectrophotometer (BioTek, Winooski, Vt.). Data analysis-Glycerol release from adipocytes and myocytes was expressed, respectively, as the percent increase in free fatty acid secretion (FIG. 9) and relative glycerol content (glycerol index FIG. 10) ±95% confidence intervals of eight observations for one of three representative experiments.
structure (smiles),measurement,setting,value
"CC1=CC(=O)C(C(C)C)=CC1=O [Thymoquinone (Sigma), thymoquinone]",DPPH Reducing Activity,[1],45.2 μmol Trolox/g TQ
same,Effect on PSA Secretion over 24 Hours,[2],"Decreased PSA at 5 and 10 μg/mL, dramatic increase"
same,Effect on PSA Secretion over 24 Hours,[2]; listed as TQ,decreased PSA only at the two lowest doses tested
same,PSA secretion,[2]; highest dose (100 μg/mL per Table 4),207%
same,PSA secretion,[2]; second highest dose (50 μg/mL per Table 4),166%
same,effect on IL-6 secretion in t10-CLA-stimulated adipocytes,[3]; concentrations of Table 8,inhibited IL-6 secretion
same,IL-6 Index,"[3]; relative to t10-CLA only control (100), 50 μM t10-CLA, overnight, each material at its tabulated concentration",75*
same,free fatty acid release in adipocytes,[4],induced free fatty acid release
